Legend:
[1] = biological target: Serine/threonine-protein kinase PLK1 (Homo sapiens) (UniProt P53350); assay: Inhibition of PLK1 (unknown origin) at 500 nM
[2] = biological target: Platelet-derived growth factor receptor beta (Homo sapiens) (UniProt P09619); assay: Inhibition of PDGFRB (unknown origin) at 500 nM
[3] = Half-life in human liver microsomes at 3 uM by LC-MS/MS analysis; assay type: ADME
[4] = biological target: T1, Testis-specific serine/threonine-protein kinase 2 (Homo sapiens) (UniProt Q96PF2); assay: Inhibition of STK22B (unknown origin) at 500 nM
T1 sequence (whole entry): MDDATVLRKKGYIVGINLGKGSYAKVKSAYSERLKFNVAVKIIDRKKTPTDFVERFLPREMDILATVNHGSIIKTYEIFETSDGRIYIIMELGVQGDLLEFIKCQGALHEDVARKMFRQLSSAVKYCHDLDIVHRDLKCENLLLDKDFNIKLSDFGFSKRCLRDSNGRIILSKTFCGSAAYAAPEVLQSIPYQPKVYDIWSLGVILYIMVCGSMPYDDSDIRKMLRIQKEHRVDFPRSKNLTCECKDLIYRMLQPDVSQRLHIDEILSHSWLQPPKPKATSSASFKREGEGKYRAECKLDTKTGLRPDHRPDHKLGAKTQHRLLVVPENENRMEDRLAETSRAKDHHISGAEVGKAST

[5] = biological target: Insulin-like growth factor 1 receptor (Homo sapiens) (UniProt P08069); assay: Inhibition of IGF1R (unknown origin) at 500 nM
[6] = biological target: Macrophage colony-stimulating factor 1 receptor (Homo sapiens) (UniProt P07333); assay: Inhibition of CSF1R (unknown origin) at 500 nM
[7] = biological target: Protein kinase C beta type (Homo sapiens) (UniProt P05771); assay: Inhibition of PRKCB1 (unknown origin) at 500 nM
[8] = biological target: MAP kinase-activated protein kinase 2 (Homo sapiens) (UniProt P49137); assay: Inhibition of MAPKAPK2 (unknown origin) at 500 nM
[9] = biological target: Mast/stem cell growth factor receptor Kit (Homo sapiens) (UniProt P10721); assay: Inhibition of KIT (unknown origin) at 500 nM
Sequence of Mast/stem cell growth factor receptor Kit (Homo sapiens) (P10721 whole entry): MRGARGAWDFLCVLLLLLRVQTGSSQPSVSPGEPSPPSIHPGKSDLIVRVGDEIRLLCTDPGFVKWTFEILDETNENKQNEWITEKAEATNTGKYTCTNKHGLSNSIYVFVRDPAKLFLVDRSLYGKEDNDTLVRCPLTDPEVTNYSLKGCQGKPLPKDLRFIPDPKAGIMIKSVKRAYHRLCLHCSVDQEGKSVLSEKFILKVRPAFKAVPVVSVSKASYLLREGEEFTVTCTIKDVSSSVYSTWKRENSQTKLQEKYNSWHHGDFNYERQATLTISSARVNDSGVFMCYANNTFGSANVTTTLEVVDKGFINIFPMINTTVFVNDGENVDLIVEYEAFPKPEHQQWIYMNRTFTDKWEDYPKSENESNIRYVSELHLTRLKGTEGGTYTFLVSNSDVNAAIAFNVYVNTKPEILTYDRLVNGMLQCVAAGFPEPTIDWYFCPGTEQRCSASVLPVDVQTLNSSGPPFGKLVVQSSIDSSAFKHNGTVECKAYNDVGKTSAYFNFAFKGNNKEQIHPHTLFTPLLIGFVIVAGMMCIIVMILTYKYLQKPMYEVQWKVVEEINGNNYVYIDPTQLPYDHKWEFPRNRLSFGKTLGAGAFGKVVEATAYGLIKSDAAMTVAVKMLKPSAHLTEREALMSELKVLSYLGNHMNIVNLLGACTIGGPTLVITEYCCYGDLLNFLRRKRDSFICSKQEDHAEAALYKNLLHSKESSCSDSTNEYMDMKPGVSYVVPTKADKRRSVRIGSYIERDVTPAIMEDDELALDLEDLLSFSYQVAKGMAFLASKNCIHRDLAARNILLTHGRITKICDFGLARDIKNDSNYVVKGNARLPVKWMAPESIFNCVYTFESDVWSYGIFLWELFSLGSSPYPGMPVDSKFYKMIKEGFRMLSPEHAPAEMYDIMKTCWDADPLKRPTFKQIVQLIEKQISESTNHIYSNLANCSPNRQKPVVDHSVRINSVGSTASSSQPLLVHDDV

[10] = biological target: Platelet-derived growth factor receptor alpha (Homo sapiens) (UniProt P16234); assay: Inhibition of PDGFRA (unknown origin) at 500 nM
[11] = biological target: Fibroblast growth factor receptor 1 (Homo sapiens) (UniProt P11362); assay: Inhibition of FGFR1 (unknown origin) at 500 nM
Sequence of Fibroblast growth factor receptor 1 (Homo sapiens) (P11362 22-822 limits assumed): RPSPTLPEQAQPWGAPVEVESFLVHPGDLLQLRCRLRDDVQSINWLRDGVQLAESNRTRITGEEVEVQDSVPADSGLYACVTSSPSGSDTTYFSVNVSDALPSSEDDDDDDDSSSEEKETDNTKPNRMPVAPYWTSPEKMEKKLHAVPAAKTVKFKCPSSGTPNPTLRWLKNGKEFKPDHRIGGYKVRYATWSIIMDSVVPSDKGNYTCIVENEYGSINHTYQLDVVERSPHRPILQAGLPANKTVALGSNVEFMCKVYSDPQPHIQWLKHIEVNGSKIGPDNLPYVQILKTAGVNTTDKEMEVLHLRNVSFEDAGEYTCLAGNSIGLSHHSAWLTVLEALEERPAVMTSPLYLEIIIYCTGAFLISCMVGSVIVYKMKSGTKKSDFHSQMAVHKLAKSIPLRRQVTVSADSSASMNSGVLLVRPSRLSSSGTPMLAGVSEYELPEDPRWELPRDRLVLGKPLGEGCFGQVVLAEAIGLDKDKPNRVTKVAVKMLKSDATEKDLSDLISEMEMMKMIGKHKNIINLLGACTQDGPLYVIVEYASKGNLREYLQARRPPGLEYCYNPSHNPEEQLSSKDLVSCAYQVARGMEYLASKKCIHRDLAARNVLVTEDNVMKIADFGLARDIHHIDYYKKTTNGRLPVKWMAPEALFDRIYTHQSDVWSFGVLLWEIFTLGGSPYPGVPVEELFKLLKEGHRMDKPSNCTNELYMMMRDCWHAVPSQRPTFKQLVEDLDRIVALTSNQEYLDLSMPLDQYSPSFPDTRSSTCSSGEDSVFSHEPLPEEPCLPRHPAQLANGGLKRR

[12] = biological target: Tyrosine-protein kinase HCK (Homo sapiens) (UniProt P08631); assay: Inhibition of HCK (unknown origin) at 500 nM
Sequence of Tyrosine-protein kinase HCK (Homo sapiens) (P08631 2-526 limits assumed): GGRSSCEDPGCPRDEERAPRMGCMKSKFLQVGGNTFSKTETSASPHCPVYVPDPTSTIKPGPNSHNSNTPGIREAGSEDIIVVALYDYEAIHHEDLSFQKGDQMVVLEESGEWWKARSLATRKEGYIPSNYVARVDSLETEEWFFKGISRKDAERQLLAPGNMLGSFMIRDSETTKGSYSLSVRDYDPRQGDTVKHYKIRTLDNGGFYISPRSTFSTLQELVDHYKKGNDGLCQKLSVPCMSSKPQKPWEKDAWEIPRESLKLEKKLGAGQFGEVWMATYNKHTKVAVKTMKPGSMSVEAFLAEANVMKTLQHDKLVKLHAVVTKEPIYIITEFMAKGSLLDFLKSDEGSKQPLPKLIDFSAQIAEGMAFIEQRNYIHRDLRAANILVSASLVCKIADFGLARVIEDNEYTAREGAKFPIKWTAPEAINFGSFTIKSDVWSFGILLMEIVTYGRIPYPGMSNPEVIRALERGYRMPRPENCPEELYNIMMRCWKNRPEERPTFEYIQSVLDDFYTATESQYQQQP

[13] = biological target: Proto-oncogene tyrosine-protein kinase receptor Ret (Homo sapiens) (UniProt P07949); assay: Inhibition of RET (unknown origin) at 500 nM
[14] = biological target: cAMP-dependent protein kinase catalytic subunit alpha (Homo sapiens) (UniProt P17612); assay: Inhibition of PRKACA (unknown origin) at 500 nM
[15] = biological target: Mitogen-activated protein kinase 1 (Homo sapiens) (UniProt P28482); assay: Inhibition of MAPK1 (unknown origin) at 500 nM
[16] = biological target: Dual specificity mitogen-activated protein kinase kinase 1 (Homo sapiens) (UniProt Q02750); assay: Inhibition of MAP2K1 (unknown origin) at 500 nM
Sequence of Dual specificity mitogen-activated protein kinase kinase 1 (Homo sapiens) (Q02750 whole entry): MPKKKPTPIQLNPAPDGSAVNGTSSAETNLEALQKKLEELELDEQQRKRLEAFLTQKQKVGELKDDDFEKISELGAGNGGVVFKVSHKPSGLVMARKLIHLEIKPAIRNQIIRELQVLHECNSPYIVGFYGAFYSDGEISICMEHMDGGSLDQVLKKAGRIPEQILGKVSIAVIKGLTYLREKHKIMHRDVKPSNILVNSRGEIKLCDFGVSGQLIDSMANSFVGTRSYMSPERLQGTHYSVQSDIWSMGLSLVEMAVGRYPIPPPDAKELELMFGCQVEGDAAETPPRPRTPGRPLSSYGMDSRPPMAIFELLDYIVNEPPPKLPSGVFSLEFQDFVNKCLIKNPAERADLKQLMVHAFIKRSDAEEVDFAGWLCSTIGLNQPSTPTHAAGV

[17] = biological target: Vascular endothelial growth factor receptor 2 (Homo sapiens) (UniProt P35968); assay: Inhibition of KDR (unknown origin) at 500 nM
[18] = biological target: Aurora kinase B (Homo sapiens) (UniProt Q96GD4); assay: Inhibition of AURKB (unknown origin) at 500 nM
Sequence of Aurora kinase B (Homo sapiens) (Q96GD4 whole entry): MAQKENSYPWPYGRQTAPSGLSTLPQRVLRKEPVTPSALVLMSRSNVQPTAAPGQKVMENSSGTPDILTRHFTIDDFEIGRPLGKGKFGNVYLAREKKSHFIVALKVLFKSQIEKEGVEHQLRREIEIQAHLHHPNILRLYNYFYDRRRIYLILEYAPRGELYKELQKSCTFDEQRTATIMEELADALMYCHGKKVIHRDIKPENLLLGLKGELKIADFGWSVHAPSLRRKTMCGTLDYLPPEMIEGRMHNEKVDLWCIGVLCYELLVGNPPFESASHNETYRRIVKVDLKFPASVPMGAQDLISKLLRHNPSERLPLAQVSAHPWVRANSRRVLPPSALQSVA

[19] = biological target: T2, Serine/threonine-protein kinase Chk1 (Homo sapiens) (UniProt O14757); assay: Inhibition of CHEK1 (unknown origin) at 500 nM
T2 sequence (whole entry): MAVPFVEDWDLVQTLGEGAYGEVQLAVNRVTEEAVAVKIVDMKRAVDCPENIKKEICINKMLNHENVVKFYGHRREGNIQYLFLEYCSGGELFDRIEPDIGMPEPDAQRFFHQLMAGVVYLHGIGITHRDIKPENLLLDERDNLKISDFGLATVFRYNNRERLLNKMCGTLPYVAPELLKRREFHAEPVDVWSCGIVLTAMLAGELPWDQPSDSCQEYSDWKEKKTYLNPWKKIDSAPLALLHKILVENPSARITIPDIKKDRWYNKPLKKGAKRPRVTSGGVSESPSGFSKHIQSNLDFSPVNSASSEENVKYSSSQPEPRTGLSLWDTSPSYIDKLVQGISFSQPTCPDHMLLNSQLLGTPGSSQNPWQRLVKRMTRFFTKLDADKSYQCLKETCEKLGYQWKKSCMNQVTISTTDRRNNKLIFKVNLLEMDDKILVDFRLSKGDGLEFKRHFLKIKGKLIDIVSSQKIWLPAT

[20] = biological target: Tyrosine-protein kinase Fgr (Homo sapiens) (UniProt P09769); assay: Inhibition of FGR (unknown origin) at 500 nM
Sequence of Tyrosine-protein kinase Fgr (Homo sapiens) (P09769 2-529 limits assumed): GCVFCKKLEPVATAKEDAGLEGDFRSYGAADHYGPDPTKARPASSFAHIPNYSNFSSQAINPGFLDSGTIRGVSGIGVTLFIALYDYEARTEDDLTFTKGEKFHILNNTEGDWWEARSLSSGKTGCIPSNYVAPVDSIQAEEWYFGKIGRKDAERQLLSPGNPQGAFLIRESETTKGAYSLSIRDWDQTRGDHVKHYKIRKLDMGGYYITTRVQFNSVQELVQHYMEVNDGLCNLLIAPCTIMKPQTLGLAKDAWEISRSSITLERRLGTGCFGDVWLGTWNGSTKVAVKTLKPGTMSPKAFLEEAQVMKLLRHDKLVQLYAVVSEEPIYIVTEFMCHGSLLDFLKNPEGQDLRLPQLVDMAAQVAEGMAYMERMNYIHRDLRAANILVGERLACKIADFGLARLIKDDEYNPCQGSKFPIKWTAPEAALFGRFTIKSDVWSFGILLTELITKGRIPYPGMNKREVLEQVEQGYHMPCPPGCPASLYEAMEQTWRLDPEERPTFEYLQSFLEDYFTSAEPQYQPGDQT

[21] = biological target: Tyrosine-protein kinase Fer (Homo sapiens) (UniProt P16591); assay: Inhibition of FER (unknown origin) at 500 nM
[22] = biological target: Receptor tyrosine-protein kinase erbB-4 (Homo sapiens) (UniProt Q15303); assay: Inhibition of ERBB4 (unknown origin) at 500 nM
[23] = biological target: Vascular endothelial growth factor receptor 1 (Homo sapiens) (UniProt P17948); assay: Inhibition of FLT1 (unknown origin) at 500 nM
Sequence of Vascular endothelial growth factor receptor 1 (Homo sapiens) (P17948 whole entry): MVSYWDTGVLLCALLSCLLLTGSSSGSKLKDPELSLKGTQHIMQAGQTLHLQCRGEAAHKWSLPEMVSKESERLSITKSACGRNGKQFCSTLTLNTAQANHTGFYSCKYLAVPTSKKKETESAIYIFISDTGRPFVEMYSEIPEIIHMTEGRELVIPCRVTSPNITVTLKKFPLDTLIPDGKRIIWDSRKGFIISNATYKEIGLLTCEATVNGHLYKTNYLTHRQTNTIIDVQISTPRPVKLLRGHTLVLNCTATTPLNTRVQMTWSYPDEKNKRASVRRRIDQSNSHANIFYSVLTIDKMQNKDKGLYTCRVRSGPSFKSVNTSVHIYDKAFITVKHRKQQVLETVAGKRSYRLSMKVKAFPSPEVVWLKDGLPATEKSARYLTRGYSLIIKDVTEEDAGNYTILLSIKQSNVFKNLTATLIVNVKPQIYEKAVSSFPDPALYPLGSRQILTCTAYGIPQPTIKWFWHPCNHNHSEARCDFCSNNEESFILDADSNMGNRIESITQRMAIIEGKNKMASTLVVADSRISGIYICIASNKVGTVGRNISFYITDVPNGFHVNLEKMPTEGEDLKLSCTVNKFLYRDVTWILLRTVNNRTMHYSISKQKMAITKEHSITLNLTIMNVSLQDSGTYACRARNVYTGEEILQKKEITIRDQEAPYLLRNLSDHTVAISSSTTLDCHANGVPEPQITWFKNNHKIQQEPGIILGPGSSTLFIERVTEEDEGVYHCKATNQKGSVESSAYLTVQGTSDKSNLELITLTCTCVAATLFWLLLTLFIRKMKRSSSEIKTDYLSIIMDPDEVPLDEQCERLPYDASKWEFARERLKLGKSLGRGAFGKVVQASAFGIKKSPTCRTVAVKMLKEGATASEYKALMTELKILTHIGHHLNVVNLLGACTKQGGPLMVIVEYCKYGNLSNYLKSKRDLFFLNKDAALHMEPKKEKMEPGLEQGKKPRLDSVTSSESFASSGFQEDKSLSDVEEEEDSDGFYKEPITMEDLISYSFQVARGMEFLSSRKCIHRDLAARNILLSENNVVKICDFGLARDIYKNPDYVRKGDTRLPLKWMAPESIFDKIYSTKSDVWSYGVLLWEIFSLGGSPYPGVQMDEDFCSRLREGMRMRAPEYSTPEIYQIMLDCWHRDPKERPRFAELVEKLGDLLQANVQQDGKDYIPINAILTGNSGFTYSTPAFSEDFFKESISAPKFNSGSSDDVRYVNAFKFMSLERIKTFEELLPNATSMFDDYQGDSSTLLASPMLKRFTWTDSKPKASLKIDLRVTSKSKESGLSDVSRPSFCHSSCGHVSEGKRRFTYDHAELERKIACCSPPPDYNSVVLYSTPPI

[24] = biological target: Tyrosine-protein kinase Yes (Homo sapiens) (UniProt P07947); assay: Inhibition of YES1 (unknown origin) at 500 nM
[25] = biological target: Angiopoietin-1 receptor (Homo sapiens) (UniProt Q02763); assay: Inhibition of TEK (unknown origin) at 500 nM
[26] = biological target: Serine/threonine-protein kinase B-raf (Homo sapiens) (UniProt P15056); assay: Inhibition of BRAF (unknown origin) at 500 nM
[27] = biological target: T3, Aurora kinase A (Homo sapiens) (UniProt O14965); assay: Inhibition of AURKA (unknown origin) at 500 nM
T3 sequence (whole entry): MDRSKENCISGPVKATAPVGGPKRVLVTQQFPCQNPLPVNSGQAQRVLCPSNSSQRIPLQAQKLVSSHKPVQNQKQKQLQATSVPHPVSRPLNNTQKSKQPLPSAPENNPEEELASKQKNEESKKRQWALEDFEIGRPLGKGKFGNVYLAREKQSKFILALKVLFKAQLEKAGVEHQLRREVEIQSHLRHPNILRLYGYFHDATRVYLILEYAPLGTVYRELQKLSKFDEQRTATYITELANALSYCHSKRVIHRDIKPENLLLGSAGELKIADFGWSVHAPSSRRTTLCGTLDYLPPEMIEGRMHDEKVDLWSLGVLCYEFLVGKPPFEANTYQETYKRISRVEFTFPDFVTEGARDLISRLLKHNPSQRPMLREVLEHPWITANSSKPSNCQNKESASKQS

[28] = biological target: Protein kinase C alpha type (Homo sapiens) (UniProt P17252); assay: Inhibition of PRKCA (unknown origin) at 500 nM

| SMILES | inhibition [1] [%] | inhibition [2] [%] | inhibition [4] [%] | inhibition [6] [%] | inhibition [7] [%] | inhibition [8] [%] | inhibition [9] [%] | inhibition [10] [%] | inhibition [11] [%] | inhibition [12] [%] | inhibition [13] [%] | inhibition [14] [%] | inhibition [15] [%] | inhibition [16] [%] | inhibition [18] [%] | inhibition [20] [%] | inhibition [21] [%] | inhibition [22] [%] | inhibition [23] [%] | inhibition [25] [%] | also measured |
| --- | --- | --- | --- | --- | --- | --- | --- | --- | --- | --- | --- | --- | --- | --- | --- | --- | --- | --- | --- | --- | --- |
| CN(C)CCNC(=O)c1ccc(-c2cc3c(N[C@H](CO)c4ccccc4)ncnc3s2)cc1 | 6 | -5 | 1 | 0 | 18 | 2 | 1 | 10 | -5 | 15 | 20 | -5 | -2 | 12 | 23 | 33 | -4 | 30 | 5 | 9 | half-life at 3 µM [3]: 1.1 h; inhibition [5]: 0%; inhibition [17]: 10%; inhibition [19]: -5%; inhibition [24]: 21%; inhibition [26]: 7%; inhibition [27]: 6% |
| COc1ccc(C(=O)NCCN(C)C)cc1-c1cc2c(N[C@H](C)c3ccccc3)ncnc2s1 | 2 | 0 | 0 | 6 | -2 | -1 | -1 | -3 | -4 | 15 | 7 | 9 | -1 | 3 | -2 | 71 | 5 | 46 | -8 | -3 | half-life at 3 µM [3]: 1.93 h; inhibition [5]: -2%; inhibition [17]: 10%; inhibition [19]: -8%; inhibition [24]: 43%; inhibition [26]: 7%; inhibition [27]: -4% |
| COc1cc(CO)ccc1-c1cc2c(N[C@H](C)c3ccccc3)ncnc2s1 | 1 | 3 | 8 | 2 | 1 | 1 | 7 | 1 | 1 | 7 | 5 | 2 | 1 | 4 | 1 | 40 | 10 | 30 | 4 | 1 | inhibition [17]: 12%; inhibition [19]: 1%; inhibition [24]: 12%; inhibition [26]: 1%; inhibition [27]: 1% |
| C#Cc1cccc(Nc2ncnc3cc(OCCOC)c(OCCOC)cc23)c1 [ERLOTINIB] | -9 | -5 |  | 38 | -2 | -1 |  |  | -4 |  | 64 | -10 |  |  | 44 | 42 | -1 | 78 | 17 | 5 | half-life at 3 µM [3]: 0.533 h; inhibition [19]: -7% |
| COc1cc(CO)ccc1-c1cc2c(N[C@H](CO)c3ccccc3)ncnc2s1 | 1 | 1 | 8 | 3 | 4 | 8 | 1 | 1 | 4 | 20 | 9 | 1 | 7 | 18 | 10 | 58 | 8 | 63 | 1 | 13 | half-life at 3 µM [3]: 2.57 h; inhibition [17]: 12%; inhibition [19]: 15%; inhibition [24]: 37%; inhibition [26]: 20%; inhibition [27]: 5% |
| COc1cc(CO)ccc1-c1cc2c(Nc3ccccc3)ncnc2s1 | 2 | -3 | 9 | 15 | -7 | 4 | 11 | 7 | -4 | 28 | 26 | 2 | -6 | 15 | 10 | 25 | 0 | 22 | 9 | 8 | inhibition [5]: -3%; inhibition [28]: -1%; inhibition [17]: 10%; inhibition [24]: 20%; inhibition [26]: 11%; inhibition [27]: -3% |
| COc1cc(C(N)=O)ccc1-c1cc2c(N[C@H](CO)c3ccccc3)ncnc2s1 | -8 | 8 | 11 | 6 | 5 | -7 | -9 | 0 | -10 | 13 | 5 | -5 | 12 | 10 | 6 | 40 | -3 | 62 | 0 | 7 | half-life at 3 µM [3]: 5.13 h; inhibition [5]: -9%; inhibition [28]: -4%; inhibition [17]: 7%; inhibition [24]: 40%; inhibition [26]: 25%; inhibition [27]: 6% |

From ChEMBL document CHEMBL3758163, “Extended structure-activity study of thienopyrimidine-based EGFR inhibitors with evaluation of drug-like properties” (Eur J Med Chem, 2016)
